Earlier results on 4 compounds are cited in PubChem BioAssay AID1259409 (Chemical Carcinogenesis Research Information System (CCRIS), 2018).

For this data set, the system named is rodent chemically induced tumor inhibition, incidence and multiplicity. The data set can be described thus: CCRIS tumor inhibitor studies.

SMILES strings stand for the structures. Values joined by “and” are separate entries in the source; they are usually repeats but may differ in a detail not shown here. Equal entries are not always repeated.

Turning to `CC(C)NCC(O)COc1cccc2ccccc12` (stereo unspecified), the “tumour outcome (control, treated, inhibition, significance)” value is recorded as 12/15 (80.0%), 6/15 (40%), 50%, not calculated (Carcinogen: 4-(METHYLNITROSAMINO)-1-(3-PYRIDYL)-1-BUTANONE [64091-91-4], Dose [Inhibitor]: 3 MG/KG BW 3X/WK FOR 20 WK IMMEDIATELY PRIOR TO EACH CARCINOGEN DOSE (STUDY DURATION: 52 WK), Route [Inhibitor]: SUBCUTANEOUS, Species: HAMSTER, Strain/Sex: SYRIAN/MALE, Target Tissue: Type of Lesion: LUNG: TUMOR, Dose [Carcinogen]: 10 MG/KG BW 3X/WK FOR 20 WK (STUDY DURATION: 52 WK), Promoter: NONE); 4/15 (26.7%), 4/15 (26.7%), 0%, not calculated (Carcinogen: 4-(METHYLNITROSAMINO)-1-(3-PYRIDYL)-1-BUTANONE [64091-91-4], Dose [Inhibitor]: 3 MG/KG BW 3X/WK FOR 20 WK IMMEDIATELY PRIOR TO EACH CARCINOGEN DOSE (STUDY DURATION: 52 WK), Route [Inhibitor]: SUBCUTANEOUS, Species: HAMSTER, Strain/Sex: SYRIAN/MALE, Target Tissue: Type of Lesion: NASAL CAVITY: TUMOR, Dose [Carcinogen]: 10 MG/KG BW 3X/WK FOR 20 WK (STUDY DURATION: 52 WK), Promoter: NONE); 15/18 (83%), 11/20 (55%), 34%, not calculated (Carcinogen: N-METHYL-N'-NITRO-N-NITROSOGUANIDINE, 70-25-7, Dose [Inhibitor]: 0, 5 MG/KG IN OLIVE OIL SUSPENSION 1/D BEGINNING 1 WK POST LAST CARCINOGEN DOSE AND CONTINUING FOR DURATION OF STUDY (ST, Species: RAT, Strain/Sex: WISTAR/MALE, Target Tissue: Type of Lesion: GLANDULAR STOMACH: ADENOCARCINOMA, Dose [Carcinogen]: 50 UG/ML IN DRINKING WATER FOR 25 WK, Promoter: NONE USED). Also, the outcome (Carcinogen: 4-(Methylnitrosamino)-1-(3-pyridyl)-1-butanone, Dose [Inhibitor]: 0.3 mg/100 g bw, 5 x a wk from offspring age of 4 wks-8 mo., Route [Inhibitor]: Subcutaneous injection, Species: Hamster, Strain/Sex: Syrian golden, male and female offspring, Target Tissue: Type of Lesion: Pancreas: Tumor (in offspring), Dose [Carcinogen]: 50 mg/kg once to dams on day 15 of pregnancy, Promoter: Ethanol) is recorded as 66.6%, 8.3%.

With `C[C@]12CC[C@]3(C1)[C@H](CC2=O)C[C@@H](OC(=O)c1ccccc1)[C@H]1[C@](C)(C(=O)O)CCC[C@@]13C`, the “tumour outcome (control, treated, inhibition, significance)” value (Carcinogen: 7,12-DIMETHYLBENZ[A]ANTHRACENE, 57-97-6, Dose [Inhibitor]: 0, 162 NMOL 2/WK APPLIED SIMULTANEOUSLY WITH EACH PROMOTER DOSE FOR 18 WK (STUDY DURATION: 18 WK), Route [Inhibitor]: DERMAL, Species: MOUSE, Strain/Sex: ICR/FEMALE, Target Tissue: Type of Lesion: SKIN: TUMOR, Dose [Carcinogen]: 100 UG IN 100 µL ACETONE ONCE, Promoter: 12-O-TETRADECANOYLPHORBOL-13-ACETATE, 16561-29-8) is 90%, 50%, 44%, not significant.

On to `CCCC[C@@H](C)[C@@H](OC(=O)C[C@@H](CC(=O)O)C(=O)O)[C@H](C[C@@H](C)C[C@H](O)CCCC[C@@H](O)C[C@H](O)[C@H](C)N)OC(=O)C[C@@H](CC(=O)O)C(=O)O`, for which the “tumour outcome (control, treated, inhibition, significance)” value by setting is: (Carcinogen: N-METHYL-N'-NITRO-NITROSOGUANIDINE, 13830-58-5, Dose [Inhibitor]: 0, 3.2 PPM IN FEED FOR 42 WK BEGINNING 1 MO POST CARCINOGEN TREATMENT (STUDY DURATION: 64 WK), Route [Inhibitor]: ORAL, Species: FISH, Strain/Sex: SHASTA RAINBOW TROUT/MALE,FEMALE, Target Tissue: Type of Lesion: KIDNEY: TUMOR, Dose [Carcinogen]: 35 PPM IN WATER FOR 30 MIN, Promoter: NONE) 19%, 14%, 26%, not significant; (Carcinogen: N-METHYL-N'-NITRO-NITROSOGUANIDINE, 13830-58-5, Dose [Inhibitor]: 0, 3.2 PPM IN FEED FOR 42 WK BEGINNING 1 MO POST CARCINOGEN TREATMENT (STUDY DURATION: 64 WK), Route [Inhibitor]: ORAL, Species: FISH, Strain/Sex: SHASTA RAINBOW TROUT/MALE,FEMALE, Target Tissue: Type of Lesion: LIVER: TUMOR, Dose [Carcinogen]: 35 PPM IN WATER FOR 30 MIN, Promoter: NONE) 45%, 25%, 44%, not significant; (Carcinogen: N-METHYL-N'-NITRO-NITROSOGUANIDINE, 13830-58-5, Dose [Inhibitor]: 0, 3.2 PPM IN FEED FOR 42 WK BEGINNING 1 MO POST CARCINOGEN TREATMENT (STUDY DURATION: 64 WK), Route [Inhibitor]: ORAL, Species: FISH, Strain/Sex: SHASTA RAINBOW TROUT/MALE,FEMALE, Target Tissue: Type of Lesion: STOMACH: TUMOR, Dose [Carcinogen]: 35 PPM IN WATER FOR 30 MIN, Promoter: NONE) 32%, 40%, -25%, not significant; (Carcinogen: N-METHYL-N'-NITRO-NITROSOGUANIDINE, 13830-58-5, Dose [Inhibitor]: 0, 3.2 PPM IN FEED FOR 42 WK BEGINNING 1 MO POST CARCINOGEN TREATMENT (STUDY DURATION: 64 WK), Route [Inhibitor]: ORAL, Species: FISH, Strain/Sex: SHASTA RAINBOW TROUT/MALE,FEMALE, Target Tissue: Type of Lesion: SWIM BLADDER: TUMOR, Dose [Carcinogen]: 35 PPM IN WATER FOR 30 MIN, Promoter: NONE) 54%, 44%, 18%, not significant; (Carcinogen: N-METHYL-N'-NITRO-NITROSOGUANIDINE, 13830-58-5, Dose [Inhibitor]: 0, 23 PPM IN FEED FOR 42 WK BEGINNING 1 MO POST CARCINOGEN TREATMENT (STUDY DURATION: 64 WK), Route [Inhibitor]: ORAL, Species: FISH, Strain/Sex: SHASTA RAINBOW TROUT/MALE,FEMALE, Target Tissue: Type of Lesion: KIDNEY: TUMOR, Dose [Carcinogen]: 35 PPM IN WATER FOR 30 MIN, Promoter: NONE) 19%, 13%, 32%, not significant; (Carcinogen: N-METHYL-N'-NITRO-NITROSOGUANIDINE, 13830-58-5, Dose [Inhibitor]: 0, 23 PPM IN FEED FOR 42 WK BEGINNING 1 MO POST CARCINOGEN TREATMENT (STUDY DURATION: 64 WK), Route [Inhibitor]: ORAL, Species: FISH, Strain/Sex: SHASTA RAINBOW TROUT/MALE,FEMALE, Target Tissue: Type of Lesion: STOMACH: TUMOR, Dose [Carcinogen]: 35 PPM IN WATER FOR 30 MIN, Promoter: NONE) 32%, 31%, 3%, not significant. Also, the “tumour outcome (control, treated, inhibition, significance)” value is, setting by setting: (Carcinogen: N-METHYL-N'-NITRO-NITROSOGUANIDINE, 13830-58-5, Dose [Inhibitor]: 0, 104 PPM IN FEED FOR 42 WK BEGINNING 1 MO POST CARCINOGEN TREATMENT (STUDY DURATION: 64 WK), Route [Inhibitor]: ORAL, Species: FISH, Strain/Sex: SHASTA RAINBOW TROUT/MALE,FEMALE, Target Tissue: Type of Lesion: KIDNEY: TUMOR, Dose [Carcinogen]: 35 PPM IN WATER FOR 30 MIN, Promoter: NONE) 19%, 6%, 68%, p<0.05; (Carcinogen: N-METHYL-N'-NITRO-NITROSOGUANIDINE, 13830-58-5, Dose [Inhibitor]: 0, 104 PPM IN FEED FOR 42 WK BEGINNING 1 MO POST CARCINOGEN TREATMENT (STUDY DURATION: 64 WK), Route [Inhibitor]: ORAL, Species: FISH, Strain/Sex: SHASTA RAINBOW TROUT/MALE,FEMALE, Target Tissue: Type of Lesion: LIVER: TUMOR, Dose [Carcinogen]: 35 PPM IN WATER FOR 30 MIN, Promoter: NONE) 45%, 76%, -69%, p<0.05; (Carcinogen: N-METHYL-N'-NITRO-NITROSOGUANIDINE, 13830-58-5, Dose [Inhibitor]: 0, 104 PPM IN FEED FOR 42 WK BEGINNING 1 MO POST CARCINOGEN TREATMENT (STUDY DURATION: 64 WK), Route [Inhibitor]: ORAL, Species: FISH, Strain/Sex: SHASTA RAINBOW TROUT/MALE,FEMALE, Target Tissue: Type of Lesion: STOMACH: TUMOR, Dose [Carcinogen]: 35 PPM IN WATER FOR 30 MIN, Promoter: NONE) 32%, 12%, 62%, p<0.05 and 54%, 51%, 6%, not significant.

Consider `C[C@]12CCC(=O)C(O)=C1CC[C@@H]1[C@@H]2CC[C@]2(C)C(=O)CC[C@@H]12`, for which the “tumour outcome (control, treated, inhibition, significance)” value reads like this: (Carcinogen: METHYLNITROSOUREA, 684-93-5, Dose [Inhibitor]: 0, 6 MG/D 7 D/WK FOR DURATION OF STUDY BEGINNING 1 WK PRIOR TO CARCINOGEN DOSE (STUDY DURATION: 107 D), Route [Inhibitor]: GAVAGE, Species: RAT, Strain/Sex: SPRAGUE-DAWLEY/FEMALE, Target Tissue: Type of Lesion: MAMMARY GLAND: TUMOR, Dose [Carcinogen]: 50 MG/KG BW ONCE, Promoter: NONE USED) 100%, 95%, 5%, not significant; (Carcinogen: METHYLNITROSOUREA, 684-93-5, Dose [Inhibitor]: 0, 15 MG/D 7 D/WK FOR DURATION OF STUDY BEGINNING 1 WK PRIOR TO CARCINOGEN DOSE (STUDY DURATION: 107 D), Route [Inhibitor]: GAVAGE, Species: RAT, Strain/Sex: SPRAGUE-DAWLEY/FEMALE, Target Tissue: Type of Lesion: MAMMARY GLAND: TUMOR, Dose [Carcinogen]: 50 MG/KG BW ONCE, Promoter: NONE USED) 100%, 100%, 0%, not significant.
